{"source": "patent US7135292B2", "about": "“Analysis and modification of gene expression in marine invertebrate cells” (Harbor Branch Oceanographic Institution, Inc., priority 2002, dated 2006)", "key": {"[1]": {"test_system": "Axinella corrugata cell cultures", "assay": "Fluorescent assays of DNA and protein content in PHA-treated cultures", "format": "cell-based", "settings": "6 replicate comparisons, observed between 6 and 18 hours after treatment", "excerpt": "Sponge Cells. Cells were obtained from cryopreserved stocks at Harbor Branch Oceanographic Institution. All cells were derived from Axinella corrugata specimens collected in the waters of Florida, the Bahamas, and the Caribbean Sea, and were cryopreserved according to Pomponi et al. (Pomponi et al. 1997b supra). This sponge is relatively common and easy to collect, amenable to culture efforts, and produces the bioactive compound, stevensine, in vitro (Pomponi et al. 1997b supra). Enriched fractions of dissociated sponge cells were prepared, cryopreserved, and thawed according to previously published methods (Pomponi et al. 1997b supra). Cells were incubated at 22–25° C. in a growth medium consisting of a modified and supplemented commercial formulation (Willoughby and Pomponi 2000 supra). The length of the incubation period was based on my unpublished observation of elevated DNA and protein contents (9%, P=0.034, and 9%, P=0.038, respectively) in PHA-treated cultures, according to fluorescent assays of 6 replicate comparisons (Willoughby and Pomponi 2000 supra). Since the effects were observed between 6 and 18 hours after treatment, cells were cultured for 12-hour periods representing the center point of the period of observed changes. […]"}, "[2]": {"test_system": "Axinella corrugata cell cultures", "assay": "PCR verification of cdc10 and calcineurin B expression", "format": "cell-based", "settings": "two specimens", "procedure": "cDNA Preparation. cDNA was prepared as described in the array experiments, using unlabeled dCTP instead of the α-^33P dCTP. The final product was then diluted 25-fold in water, loaded onto a DNA recovery column (Zymo Research D4001) and washed according to the manufacturer's protocol followed by elution with four consecutive 25-μl aliquots of nuclease free water. The procedure was then repeated for 40-μl aliquots, with a final elution in two aliquots of 20 μl, to produce twice-washed cDNA. Final template solution was prepared from 10 μl of twice-washed cDNA by addition of 80 μl water and precipitation with 30 μl 5M ammonium acetate and 250 μl ethanol at −20° C. for 30 minutes. Samples were centrifuged at 4° C. for 30 minutes at 10,000×g. Pellets were washed twice with 70% ethanol and air-dried for 15 minutes prior to resuspension in 20 μl nuclease free water. For the -RT control reactions, RNA/DNA template amounts were calculated volumetrically, to correspond with the volume of final template used in each reaction. Since some loss of cDNA can be expected for each of the purification steps, the volume of template used in the -RT control reactions likely exceeds that used in the corresponding test reactions, resulting in overestimation of the possible contribution of DNA background signals, acting as a conservative control.\nPrimers. […]"}}, "data": [{"substance": "phytohemagglutinin [PHA]", "values": [{"measurement": "elevated DNA content in PHA-treated cultures", "setting": "[1]; P=0.034", "result": 9, "unit": "%"}, {"measurement": "elevated protein content in PHA-treated cultures", "setting": "[1]; P=0.038", "result": 9, "unit": "%"}, {"measurement": "cdc10 expression by PCR, PHA treated vs untreated", "setting": "[2]; FIG. 9A", "result": "up-regulation"}, {"measurement": "calcineurin B expression by PCR, PHA treated vs untreated", "setting": "[2]; FIG. 9B", "result": "down-regulation"}]}]}
